Entries after “also recorded” stand apart in the source; their conditions may differ.
Assays:
S. aureus SbnB mutant = format: cell-based; conditions: compound added to growth media
Procedure: (§1) Using SbnA and SbnB mutants in growth culture assays, compounds were added to the growth media and tested for the ability to overcome the iron-restricted phenotype.

S. aureus SbnA mutant = assay: growth culture assay, compounds added to overcome iron-restricted growth defect of SbnA mutant; format: cell-based; conditions: compound added to growth media; data not shown
Procedure: as §1

HtsSir mutant = assay: disc growth assay with cell-free synthesized staphyloferrin A, HtsSir mutant; format: cell-based, S. aureus; conditions: paper disk on agar plate, 37° C. for 24 hours
Procedure: (§2) Growth radius was measured around the disc after incubation of plates at 37° C. for 24 hours.

Hts mutant = assay: disc growth assay with cell-free synthesized staphyloferrin A, Hts mutant; format: cell-based, S. aureus; conditions: paper disk on agar plate, 37° C. for 24 hours
Procedure: as §2

wildtype S. aureus = assay: disc growth assay with cell-free synthesized staphyloferrin A, wildtype; format: cell-based; conditions: paper disk on agar plate, 37° C. for 24 hours
Procedure: as §2

SirA mutant = assay: disc growth assay with cell-free synthesized staphyloferrin A, SirA mutant; format: cell-based, S. aureus; conditions: paper disk on agar plate, 37° C. for 24 hours
Procedure: as §2

SbnF = biological target: T1, SbnF (Staphylococcus aureus, UniProt Q2G1M8); assay: hydroxylamine trapping (hydroxamate formation) assay, SbnF; format: biochemical, S. aureus; conditions: 5 μM enzyme
T1 construct: 6xHis; made in house; host or cells: E. coli BL21 (DE3)
T1 sequence (Q2G1M8 25-616 limits assumed): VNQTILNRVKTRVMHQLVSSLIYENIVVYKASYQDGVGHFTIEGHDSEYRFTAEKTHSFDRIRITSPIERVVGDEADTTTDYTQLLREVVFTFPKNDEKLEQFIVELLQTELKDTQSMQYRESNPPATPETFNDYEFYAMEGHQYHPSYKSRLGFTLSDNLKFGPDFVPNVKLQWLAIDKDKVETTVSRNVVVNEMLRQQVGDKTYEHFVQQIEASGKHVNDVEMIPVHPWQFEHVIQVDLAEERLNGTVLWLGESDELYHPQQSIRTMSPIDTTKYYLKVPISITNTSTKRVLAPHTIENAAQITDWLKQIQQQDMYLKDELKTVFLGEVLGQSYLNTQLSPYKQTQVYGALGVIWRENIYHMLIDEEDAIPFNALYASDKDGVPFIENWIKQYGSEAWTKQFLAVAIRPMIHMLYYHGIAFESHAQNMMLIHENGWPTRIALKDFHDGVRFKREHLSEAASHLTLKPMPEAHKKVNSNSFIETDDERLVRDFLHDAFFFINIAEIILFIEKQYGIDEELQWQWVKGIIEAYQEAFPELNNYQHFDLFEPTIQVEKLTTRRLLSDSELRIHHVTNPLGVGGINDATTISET
Procedure: All reactions were performed in 300 μL volumes and the following were common to each reaction: 2.25 mM ATP, 15 mM MgCl2, 150 mM hydroxylamine, and 50 mM HEPES pH 7.4. […] Similarly, to assess which enzyme utilized α-KG as a substrate, 5 μM of SbnC, SbnE, or SbnF were incubated with 3 mM α-KG and the common reaction components. […] This reaction was then heat treated at 70° C. to deactivate SbnE and the reaction was then centrifuged at 14 500 rpm for 10 minutes to pellet precipitated enzyme. The supernatant which now contains the citryl-Dae intermediate was incubated with fresh 5 μM SbnF or SbnC, 2.25 mM ATP, and 150 mM hydroxylamine. To assess the potential recognition of citryl-Dap as a substrate for SbnF or SbnC, this intermediate was formed as described above except that Dae was replaced with 50 mM Dap instead. For each reaction, a duplicate control reaction was prepared in which the enzyme was previously inactivated by heating at 100° C. for 10 minutes. All reactions described above were incubated at room temperature in the dark for 1 hour before addition of 300 μL stopping solution which consisted of 10% (w/v) FeCl3 and 3.3% (w/v) trichloroacetic acid in 0.7 M HCl. Reactions were centrifuged at 20 000×g for 5 minutes to remove precipitate and the formation of ferric hydroxamate was detected spectrophotometrically at 540 nm. Relative absorbance values reported in this study were calculated by subtracting the absorbance of the control (boiled enzyme) reactions from the absorbance of experimental reactions.

SbnE = biological target: T2, SbnE (Staphylococcus aureus, UniProt Q2G1M9); assay: hydroxylamine trapping (hydroxamate formation) assay, SbnE; format: biochemical, S. aureus; conditions: 5 μM enzyme, 3 mM substrate
T2 construct: 6xHis; made in house; host or cells: E. coli BL21 (DE3)
T2 sequence (Q2G1M9 whole entry): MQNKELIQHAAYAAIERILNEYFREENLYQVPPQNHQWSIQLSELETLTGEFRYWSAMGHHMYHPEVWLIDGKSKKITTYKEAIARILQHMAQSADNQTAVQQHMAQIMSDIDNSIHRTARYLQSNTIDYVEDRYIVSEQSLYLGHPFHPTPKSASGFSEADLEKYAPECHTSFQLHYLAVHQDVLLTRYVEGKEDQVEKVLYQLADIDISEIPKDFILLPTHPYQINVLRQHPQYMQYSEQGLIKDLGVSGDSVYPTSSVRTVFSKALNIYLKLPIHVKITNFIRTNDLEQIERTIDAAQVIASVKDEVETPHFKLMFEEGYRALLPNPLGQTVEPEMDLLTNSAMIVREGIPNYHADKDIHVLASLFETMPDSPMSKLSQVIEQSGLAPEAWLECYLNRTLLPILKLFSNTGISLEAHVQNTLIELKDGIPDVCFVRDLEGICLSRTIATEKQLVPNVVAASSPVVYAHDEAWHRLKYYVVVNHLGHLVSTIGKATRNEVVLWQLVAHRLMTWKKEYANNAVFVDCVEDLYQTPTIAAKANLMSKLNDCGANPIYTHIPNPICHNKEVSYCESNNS
Procedure: All reactions were performed in 300 μL volumes and the following were common to each reaction: 2.25 mM ATP, 15 mM MgCl2, 150 mM hydroxylamine, and 50 mM HEPES pH 7.4. […] The supernatant which now contains the citryl-Dae intermediate was incubated with fresh 5 μM SbnF or SbnC, 2.25 mM ATP, and 150 mM hydroxylamine. To assess the potential recognition of citryl-Dap as a substrate for SbnF or SbnC, this intermediate was formed as described above except that Dae was replaced with 50 mM Dap instead. For each reaction, a duplicate control reaction was prepared in which the enzyme was previously inactivated by heating at 100° C. for 10 minutes. All reactions described above were incubated at room temperature in the dark for 1 hour before addition of 300 μL stopping solution which consisted of 10% (w/v) FeCl3 and 3.3% (w/v) trichloroacetic acid in 0.7 M HCl. Reactions were centrifuged at 20 000×g for 5 minutes to remove precipitate and the formation of ferric hydroxamate was detected spectrophotometrically at 540 nm. Relative absorbance values reported in this study were calculated by subtracting the absorbance of the control (boiled enzyme) reactions from the absorbance of experimental reactions.
Essentially, this assay is used to monitor the specific activity of a synthetase towards a particular carboxylic acid.

HtsA = assay: heme binding to purified HtsA (absorption spectra); design: species or system S. aureus; conditions: in comparison to IsdE
From the text: FIG. 10 illustrates the absorption spectra of purified IsdE, HtsA and SirA proteins in the absence of heme (A) and on exposure to heme (B);
In liquid growth assays, no attenuation of the htsABC deletion mutant, H1665, when grown on heme as a sole iron source (data not shown) was observed.

[1] = tested on: siderophore-deficient S. aureus (ΔsfaΔsbn); assay: iron-starved growth of siderophore-deficient S. aureus with in vitro synthesized staphyloferrin B; format: cell-based; conditions: enzymatic reaction material from complete reactions, increasing amounts
Procedure: Bacteria were cultured for 12 hours in TMS broth then 12 hours in TMS broth containing 100 μM 2,2′-dipyridyl (Sigma-Aldrich). Cells were washed twice in saline, and diluted 1:100 into 60% horse serum (Sigma-Aldrich)—40% TMS broth. For iron-replete media, 50 μM FeCl3 was included. Cultures were grown under constant, medium amplitude shaking in a Bioscreen C machine (Growth Curves, USA). Optical density was measured at 600 nm every 30 min. However, for clarity of growth curve figures, data are shown only at 2-hour intervals.
This staphyloferrin B-dependent growth promotion was mediated by the ABC transporter SirABC (FIG. 14B), which is encoded by the sirABC operon divergently transcribed from the sbn operon (FIG. 13A).

SbnC = biological target: T3, SbnC (Staphylococcus aureus, UniProt Q2G1N1); assay: hydroxylamine trapping (hydroxamate formation) assay, SbnC; format: biochemical, S. aureus; conditions: 5 μM enzyme, 3 mM substrate
T3 construct: 6xHis; made in house; host or cells: E. coli BL21 (DE3)
T3 sequence (Q2G1N1 1-584): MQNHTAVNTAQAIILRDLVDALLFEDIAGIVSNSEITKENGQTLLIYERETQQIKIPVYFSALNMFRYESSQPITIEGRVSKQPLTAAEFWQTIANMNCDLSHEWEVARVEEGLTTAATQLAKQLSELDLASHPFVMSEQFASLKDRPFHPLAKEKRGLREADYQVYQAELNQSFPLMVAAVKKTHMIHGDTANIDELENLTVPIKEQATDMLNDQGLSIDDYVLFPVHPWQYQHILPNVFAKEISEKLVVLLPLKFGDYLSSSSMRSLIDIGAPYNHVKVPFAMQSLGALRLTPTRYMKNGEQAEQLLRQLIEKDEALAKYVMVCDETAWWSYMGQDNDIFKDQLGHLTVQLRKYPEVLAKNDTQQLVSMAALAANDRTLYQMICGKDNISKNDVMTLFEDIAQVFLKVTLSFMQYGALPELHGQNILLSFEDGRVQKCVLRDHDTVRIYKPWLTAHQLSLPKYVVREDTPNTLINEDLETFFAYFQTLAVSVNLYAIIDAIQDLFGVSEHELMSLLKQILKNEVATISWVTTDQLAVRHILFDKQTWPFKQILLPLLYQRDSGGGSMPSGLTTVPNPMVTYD
Procedure: To assess the potential recognition of citryl-Dap as a substrate for SbnF or SbnC, this intermediate was formed as described above except that Dae was replaced with 50 mM Dap instead. For each reaction, a duplicate control reaction was prepared in which the enzyme was previously inactivated by heating at 100° C. for 10 minutes. All reactions described above were incubated at room temperature in the dark for 1 hour before addition of 300 μL stopping solution which consisted of 10% (w/v) FeCl3 and 3.3% (w/v) trichloroacetic acid in 0.7 M HCl. Reactions were centrifuged at 20 000×g for 5 minutes to remove precipitate and the formation of ferric hydroxamate was detected spectrophotometrically at 540 nm. Relative absorbance values reported in this study were calculated by subtracting the absorbance of the control (boiled enzyme) reactions from the absorbance of experimental reactions.

S. aureus = assay: promotion of iron-starved growth of S. aureus; format: cell-based; conditions: SbnE reaction product; data not shown
Procedure: Siderophore plate bioassays were performed as described (Beasley et al., 2009). Growth promotion, as measured by the diameter of the growth halo around each disk, was determined after 36 h incubation at 37° C.

[2] = chrome azurol S (CAS) assay of iron chelating / siderophore activity; conditions: SbnE reaction product
From the text: Strains of S. aureus containing complete sbn operon deletions (i.e. deleted for all of sbnA through sbnI genes) were constructed. In S. aureus Newman background, the sbn deletion strain was called H1331 whereas in RN6390 background, it was called H1324. […] Supplementation of serum growth media with iron obviated the growth defect of H1331 (FIG. 1, inset), and suppressed siderophore production in both Newman and H1331 (FIG. 2). […] To ensure that this was not due to a strain-specific phenomenon, all experiments described above were repeated using instead the RN6390 genetic background (i.e. RN6390 vs. H1324). Equivalent results were obtained (data not shown).
To measure levels of siderophore activity, chrome azurol S (CAS) shuttle solution was prepared as described. In the case of in vitro synthesized staphyloferrin B, 50 μL of the reaction mixture were removed and diluted in 450 μL of deionized water followed by 500 μL of CAS shuttle solution in a 1 ml spectrophotometer cuvette. The mixture was then incubated in the dark for 45 minutes. Siderophore quantification and absorbance readings were performed as described (Beasley et al., 2009).

## NCC(N)C(=O)O (stereo not drawn) [2,3-diamonpropionate, 2,3-diaminopropionate]
S. aureus SbnB mutant
  overcoming the iron-restricted growth defect of the SbnB mutant: can be overcome
S. aureus SbnA mutant
  overcoming the iron-restricted growth defect of the SbnA mutant: can be overcome

## O=C(O)CC(O)(CC(=O)NCCC[C@@H](NC(=O)CC(O)(CC(=O)O)C(=O)O)C(=O)O)C(=O)O (stereo partly drawn) [Staphyloferrin A, staphyloferrin A]
HtsSir mutant
  growth promotion of HtsSir mutant: did not promote growth
Hts mutant
  growth promotion of Hts mutant: did not promote growth
Wildtype S. aureus
  growth promotion of wildtype S. aureus: promoted growth
SirA mutant
  growth promotion of SirA mutant: promoted growth

## O=C(O)CC(O)(CC(=O)O)C(=O)O [citrate]
SbnF
  activity of SbnF towards carboxylic acid substrate: small level of activity
SbnE
  activity of SbnE towards carboxylic acid substrate: high level of specific activity

## NCCNC(=O)CC(O)(CC(=O)O)C(=O)O (stereo not drawn) [citryl-Dae]
SbnF
  activity of SbnF towards carboxylic acid substrate: high levels of activity

## C=CC1=C(C)c2cc3[n-]c(cc4[n-]c(cc5nc(cc1n2)C(C)=C5C=C)c(C)c4CCC(=O)O)c(CCC(=O)O)c3C.[Fe+2] [heme]
HtsA
  heme association with purified HtsA: little to no heme would associate

## O=C(O)[C@@H]1CCCN1 [proline]
S. aureus SbnB mutant
  overcoming the iron-restricted growth defect of the SbnB mutant: unable to overcome

## N[C@@H](CNC(=O)C[C@@](O)(CC(=O)NCCNC(=O)CCC(=O)C(=O)O)C(=O)O)C(=O)O [staphyloferrin B]
[1]
  promotion of iron-starved growth of siderophore-deficient S. aureus (ΔsfaΔsbn): readily promote the iron-starved growth; also recorded: reaching levels comparable to growth in the presence of iron

## O=C(O)CCC(=O)C(=O)O [α-KG, α-ketoglutarate]
SbnF
  activity of SbnF towards carboxylic acid substrate: not
SbnC
  activity of SbnC towards carboxylic acid substrate: activates
SbnE
  activity of SbnE towards carboxylic acid substrate: not

## NC(CNC(=O)CC(O)(CC(=O)O)C(=O)O)C(=O)O (stereo not drawn) [β-citryl-Dap intermediate]
SbnF
  activity of SbnF towards carboxylic acid substrate: did not react
S. aureus
  promotion of iron-starved growth of S. aureus: unable to promote
[2]
  reaction with CAS reagent: reacted strongly

Source: patent US8637657B2, “Siderophore-mediated iron uptake in bacterial infection” (priority 2008, dated 2014)
